According to US20250275976A1, “Methods of Treating Neuroinflammatory Conditions” (Athira Pharma, Inc., priority 2022, published 2025):
Square brackets hold non-standard residues; d marks the D form. Peptide text beside a SMILES is read from it. * marks the point of attachment. Hexanoyl = CCCCCC(=O)*; Ahx = NCCCCCC(=O)O

Legend:
Type in all cases: cell-based
BV2 microglia [1] = assay: Nitrite production in LPS-stimulated BV2 microglia (Griess Reagent System); design: key to Inflammatory Readout: Nitrite (significance of reduction): “NS” indicates a non-significant reduction NO production; “++” indicates a p value < 0.005 in Dunnett's multiple comparison; “+++” indicates a p value < 0.0005 in Dunnett's multiple comparison; settings: for Inflammatory Readout: Nitrite (significance of reduction): LPS pre-treatment 45 minutes, compound 23.5 hours
Excerpt: Microglia are the resident immune cells of the brain and, when activated by pathological conditions, promote broad-spectrum neuroinflammation. When activated by toxic exogenous substances, microglia produce excessive reactive oxygen species (ROS), nitric oxide (NO), and proinflammatory cytokines, which further propagates disease pathogenesis. BV2 microglia were used as an in-vitro cell model to evaluate mechanisms relevant to inflammation in the CNS. Upon activation of TLR4 with LPS, microglia are activated and trigger excessive oxidative stress, a process that is partially mediated by AKT phosphorylation (pAKT) and activation. Microglia activation also leads to a range of changes in gene expression.
Compound A19 active metabolite (Compound A19-AM) was investigated for whether it could reduce the inflammatory effect of LPS in microglia. Inflammatory activation of BV2 microglia cells was stimulated by pre-treatment with LPS for 45 minutes, followed by the addition of test compound for 1 hour (pAKT) or 23.5 hours (NO and gene expression panel). For pAKT measurement, cells were lysed and the pAKT measurement was conducted using the HTRF system. For NO production, culture supernatants were collected and assessed for the presence of nitrite, a primary metabolic product of nitric oxide.
Quantification of nitrite production in cell culture supernatants was accomplished using the Griess Reagent System (Promega, G2930). Measurement of pAKT was assessed utilizing Phospho-AKT 1/2/3 (Ser473) […] Cellular Detection Kit (CisBio, 64AKSPEH).
Data analysis was performed via One-way ANOVA with Dunnett's multiple comparisons test compared to LPS-stimulated, vehicle treated cultures using Prism statistical software (GraphPad). Tabular data indicates significance of reduction in the indicated analyte at the indicated dose.

[2] = tested on: primary culture of both cortical neurons and microglia; assay: Microglial activation (Iba1 area) after Aβ1-42 challenge; design: key to Significant decrease in Iba1 area, compared to vehicle treated (Aβ challenge): “NS” indicates a non-significant change in Iba1 area; “+” indicates a p value < 0.05 in Fisher's LSD post-test compared to Aβ challenged
BV2 microglia [3] = assay: Quantigene gene expression panel in LPS-stimulated BV2 microglia; design: key to Significant reduction in target transcript abundance compared to LPS-stimulated BV2 lysates: NLRP3 / Significant reduction in target transcript abundance compared to LPS-stimulated BV2 lysates: IL-1β / Significant reduction in target transcript abundance compared to LPS-stimulated BV2 lysates: IL-6 / Significant reduction in target transcript abundance compared to LPS-stimulated BV2 lysates: iNOS: “NS” indicates a non-significant reduction indicated gene expression compared to LPS-treated cultures; “+” indicates a p value < 0.05; “++” indicates a p value < 0.01; “+++” indicates a p value < 0.001; “+++” indicates a p value < 0.0005 in Dunnett's multiple comparison
Method: Changes in gene expression in BV2 cells in response to stimulation with LPS and whether or not these gene expression changes are influenced by treatment with Compound A19-AM was also examined. Inflammatory activation of BV2 microglia was stimulated by pre-treatment with LPS for 45 minutes followed by the addition of test compound for 23.5 hours. Cell cultures were then lysed and processed for expression profiling via bead-based transcript quantification using the Quantigene multiplex gene expression assay (ThermoFisher) and a custom array of target transcripts relevant to inflammatory activation. Expression of a major component of the inflammasome (NLRP3), cytokines (TNF-α, IL-1β, and IL-6), and inducible nitric oxide synthase (iNOS) were assessed. Expression data were quantified as fold change compared to unstimulated cell cultures. Statistical analysis consisted of one-way ANOVA with Dunnett's multiple comparisons post-test compared to LPS-stimulated lysates. Gene expression data is represented in Table 14. Expression of all inflammatory transcript targets were induced by treatment with LPS.

CCCCCC(=O)N[C@@H](Cc1ccc(O)cc1)C(=O)N[C@H](C(=O)NCCCCCC(N)=O)[C@@H](C)CC [Compound A19 active metabolite, dihexa] (Hexanoyl-Tyr-Ile-[Ahx]-NH2)
Production of nitrite (result in words) (BV2 microglia [1]; LPS-stimulated BV2): significantly reduced | Inflammatory Readout: Nitrite (significance of reduction) (BV2 microglia [1]; dose 0.01 nM): ++ (“++” indicates a p value < 0.005 in Dunnett's multiple comparison) | Inflammatory Readout: Nitrite (significance of reduction) (BV2 microglia [1]; dose 1 nM): +++ (“+++” indicates a p value < 0.0005 in Dunnett's multiple comparison) | Inflammatory Readout: Nitrite (significance of reduction) (BV2 microglia [1]; dose 10 nM): NS | Significant decrease in Iba1 area, compared to vehicle treated (Aβ challenge) ([2]; 100 nM, Pre-(60 min) and Co- Aβ challenge): + (“+” indicates a p value < 0.05 in Fisher's LSD post-test compared to Aβ challenged) | Significant decrease in Iba1 area, compared to vehicle treated (Aβ challenge) ([2]; 100 nM, Pre-(60 min) and post-(24 h) Aβ challenge): NS | Significant decrease in Iba1 area, compared to vehicle treated (Aβ challenge) ([2]; 100 nM, Pre-(60 min), Co-, and post-(24 h) Aβ challenge): + (“+” indicates a p value < 0.05 in Fisher's LSD post-test compared to Aβ challenged) | Significant decrease in Iba1 area, compared to vehicle treated (Aβ challenge) ([2]; 1 μM, Pre-(60 min) and Co- Aβ challenge): + (“+” indicates a p value < 0.05 in Fisher's LSD post-test compared to Aβ challenged) | Significant decrease in Iba1 area, compared to vehicle treated (Aβ challenge) ([2]; 1 μM, Pre-(60 min) and post-(24 h) Aβ challenge): NS | Significant decrease in Iba1 area, compared to vehicle treated (Aβ challenge) ([2]; 1 μM, Pre-(60 min), Co-, and post-(24 h) Aβ challenge): + (“+” indicates a p value < 0.05 in Fisher's LSD post-test compared to Aβ challenged) | Significant decrease in Iba1 area, compared to vehicle treated (Aβ challenge) ([2]; 60 min pre-Aβ challenge, concentration not given): + (“+” indicates a p value < 0.05 in Fisher's LSD post-test compared to Aβ challenged) | Microglial activation, as measured by Iba1 area (result in words) ([2]; Aβ1-42 challenge 72 hours): significantly reduced microglial activation | Expression of IL-1β (result in words) (BV2 microglia [3]; concentrations as in the value): reduced at treatment concentrations of 100 nM and 1 μM | Expression of IL-6 (result in words) (BV2 microglia [3]; concentrations as in the value): reduced at by treatment with 1 μM | Expression of NLRP3 (result in words) (BV2 microglia [3]; concentrations as in the value): significantly reduced by treatment with 100 nM and 1 μM | Expression of TNF-α (result in words) (BV2 microglia [3]; concentrations as in the value): reduced by treatment with A19-AM at all tested concentrations | Expression of iNOS (result in words) (BV2 microglia [3]; concentrations as in the value): significantly reduced by treatment with A19-AM at concentrations of 100 nM and 1 μM | Significant reduction in target transcript abundance compared to LPS-stimulated BV2 lysates: IL-1β (BV2 microglia [3]; dose 1 pM): NS | Significant reduction in target transcript abundance compared to LPS-stimulated BV2 lysates: IL-6 (BV2 microglia [3]; dose 1 pM): NS | Significant reduction in target transcript abundance compared to LPS-stimulated BV2 lysates: NLRP3 (BV2 microglia [3]; dose 1 pM): NS | Significant reduction in target transcript abundance compared to LPS-stimulated BV2 lysates: iNOS (BV2 microglia [3]; dose 1 pM): NS | Significant reduction in target transcript abundance compared to LPS-stimulated BV2 lysates: IL-1β (BV2 microglia [3]; dose 10 pM): NS | Significant reduction in target transcript abundance compared to LPS-stimulated BV2 lysates: IL-6 (BV2 microglia [3]; dose 10 pM): NS | Significant reduction in target transcript abundance compared to LPS-stimulated BV2 lysates: NLRP3 (BV2 microglia [3]; dose 10 pM): NS | Significant reduction in target transcript abundance compared to LPS-stimulated BV2 lysates: iNOS (BV2 microglia [3]; dose 10 pM): NS | Significant reduction in target transcript abundance compared to LPS-stimulated BV2 lysates: IL-1β (BV2 microglia [3]; dose 100 pM): NS | Significant reduction in target transcript abundance compared to LPS-stimulated BV2 lysates: IL-6 (BV2 microglia [3]; dose 100 pM): NS | Significant reduction in target transcript abundance compared to LPS-stimulated BV2 lysates: NLRP3 (BV2 microglia [3]; dose 100 pM): NS | Significant reduction in target transcript abundance compared to LPS-stimulated BV2 lysates: iNOS (BV2 microglia [3]; dose 100 pM): NS | Significant reduction in target transcript abundance compared to LPS-stimulated BV2 lysates: IL-1β (BV2 microglia [3]; dose 100 nM): + (“+” indicates a p value < 0.05) | Significant reduction in target transcript abundance compared to LPS-stimulated BV2 lysates: IL-6 (BV2 microglia [3]; dose 100 nM): NS | Significant reduction in target transcript abundance compared to LPS-stimulated BV2 lysates: NLRP3 (BV2 microglia [3]; dose 100 nM): ++ (“++” indicates a p value < 0.01) | Significant reduction in target transcript abundance compared to LPS-stimulated BV2 lysates: iNOS (BV2 microglia [3]; dose 100 nM): ++ (“++” indicates a p value < 0.01) | Significant reduction in target transcript abundance compared to LPS-stimulated BV2 lysates: IL-1β (BV2 microglia [3]; dose 1 μM): ++ (“++” indicates a p value < 0.01) | Significant reduction in target transcript abundance compared to LPS-stimulated BV2 lysates: IL-6 (BV2 microglia [3]; dose 1 μM): + (“+” indicates a p value < 0.05) | Significant reduction in target transcript abundance compared to LPS-stimulated BV2 lysates: NLRP3 (BV2 microglia [3]; dose 1 μM): + (“+” indicates a p value < 0.05) | Significant reduction in target transcript abundance compared to LPS-stimulated BV2 lysates: iNOS (BV2 microglia [3]; dose 1 μM): ++ (“++” indicates a p value < 0.01)
